Legend:
SK-MEL-23 = assay: NCI In-Vitro Testing, Melanoma; format: cell-based
SNB-75 = assay: NCI In-Vitro Testing, CNS Cancer; format: cell-based
NCI-H460 = assay: NCI In-Vitro Testing, Non-Small Cell Lung Cancer; format: cell-based
HS 576T = assay: NCI In-Vitro Testing, Breast Cancer; format: cell-based
IGROV1 = assay: NCI In-Vitro Testing, Ovarian Cancer; format: cell-based
MOLT-4 = assay: NCI In-Vitro Testing, Leukemia; format: cell-based
NCI-H322M = assay: NCI In-Vitro Testing, Non-Small Cell Lung Cancer; format: cell-based
UO-31 = assay: NCI In-Vitro Testing, Renal Cancer; format: cell-based
OVCAR-3 = assay: NCI In-Vitro Testing, Ovarian Cancer; format: cell-based
UACC-62 = assay: NCI In-Vitro Testing, Melanoma; format: cell-based
A431 cytotoxicity assay = format: cell-based; settings: human, A431 cells; Table 3
DU-145 = assay: NCI In-Vitro Testing, Prostate Cancer; format: cell-based
Flk-1 kinase = Flk-1 kinase (Homo sapiens (Human), UniProt P35968); assay: Flk-1 kinase inhibition; format: biochemical; settings: Table 3
M14 = assay: NCI In-Vitro Testing, Melanoma; format: cell-based
SF-539 = assay: NCI In-Vitro Testing, CNS Cancer; format: cell-based
OVCAR-4 = assay: NCI In-Vitro Testing, Ovarian Cancer; format: cell-based
SR = assay: NCI In-Vitro Testing, Leukemia; format: cell-based
SK-MEL-5 = assay: NCI In-Vitro Testing, Melanoma; format: cell-based
OVCAR-5 = assay: NCI In-Vitro Testing, Ovarian Cancer; format: cell-based

Chain of Flk-1 kinase (P35968 20-1356): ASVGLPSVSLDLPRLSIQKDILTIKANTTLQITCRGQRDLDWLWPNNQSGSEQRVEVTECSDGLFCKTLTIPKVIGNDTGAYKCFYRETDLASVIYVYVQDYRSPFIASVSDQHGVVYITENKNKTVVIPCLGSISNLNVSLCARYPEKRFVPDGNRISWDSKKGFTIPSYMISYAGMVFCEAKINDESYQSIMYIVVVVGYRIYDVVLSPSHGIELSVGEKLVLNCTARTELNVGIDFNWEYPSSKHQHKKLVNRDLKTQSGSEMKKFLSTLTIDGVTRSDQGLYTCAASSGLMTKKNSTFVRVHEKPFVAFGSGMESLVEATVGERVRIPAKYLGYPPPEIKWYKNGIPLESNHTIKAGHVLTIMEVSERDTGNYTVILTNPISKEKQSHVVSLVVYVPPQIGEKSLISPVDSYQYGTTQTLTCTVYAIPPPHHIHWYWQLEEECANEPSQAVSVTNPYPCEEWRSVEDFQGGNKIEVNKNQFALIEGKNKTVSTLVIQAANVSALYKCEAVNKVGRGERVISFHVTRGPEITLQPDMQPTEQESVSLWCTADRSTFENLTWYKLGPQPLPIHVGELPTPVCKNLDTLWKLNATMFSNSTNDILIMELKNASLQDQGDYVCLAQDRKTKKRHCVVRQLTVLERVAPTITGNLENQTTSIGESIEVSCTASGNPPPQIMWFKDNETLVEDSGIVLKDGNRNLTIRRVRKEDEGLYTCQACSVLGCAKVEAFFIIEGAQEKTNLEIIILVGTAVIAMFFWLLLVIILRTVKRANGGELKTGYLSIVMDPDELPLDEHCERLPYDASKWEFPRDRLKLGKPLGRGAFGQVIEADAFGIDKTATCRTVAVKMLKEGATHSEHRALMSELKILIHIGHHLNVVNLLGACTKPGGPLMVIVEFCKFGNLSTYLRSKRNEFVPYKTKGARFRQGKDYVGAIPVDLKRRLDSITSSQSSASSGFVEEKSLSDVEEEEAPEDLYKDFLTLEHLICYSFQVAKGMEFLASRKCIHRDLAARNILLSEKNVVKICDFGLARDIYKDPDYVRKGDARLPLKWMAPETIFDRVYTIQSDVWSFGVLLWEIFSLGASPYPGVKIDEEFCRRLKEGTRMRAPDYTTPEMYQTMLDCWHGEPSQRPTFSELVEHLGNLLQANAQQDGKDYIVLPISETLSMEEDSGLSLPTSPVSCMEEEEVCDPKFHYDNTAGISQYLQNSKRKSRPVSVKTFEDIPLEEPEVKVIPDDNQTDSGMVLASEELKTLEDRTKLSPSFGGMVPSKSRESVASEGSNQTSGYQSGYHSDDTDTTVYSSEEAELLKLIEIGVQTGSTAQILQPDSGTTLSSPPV

For `Nc1nc2c(c(Nc3ccc(Cl)cc3)n1)-c1ccccc1C2` [AAG145-136], the GI50 (SK-MEL-23) was 1.51E−8 Molar, the LC50 (SK-MEL-23) was >1.00E−4 Molar and the TGI (SK-MEL-23) was >1.00E−4 Molar. The “Percent Growth” value (SK-MEL-23; Log10 Concentration −4.0 Molar) was 41%, the “Percent Growth” value (SK-MEL-23; Log10 Concentration −5.0 Molar) was 32% and the “Percent Growth” value (SK-MEL-23; Log10 Concentration −6.0 Molar) was 54%. The “Percent Growth” value (SK-MEL-23; Log10 Concentration −7.0 Molar) was 97%, the “Percent Growth” value (SK-MEL-23; Log10 Concentration −8.0 Molar) was 105% and the GI50 (SNB-75) was 5.03E−6 Molar. The LC50 (SNB-75) was >1.00E−4 Molar, the TGI (SNB-75) was 6.44E−5 Molar and the “Percent Growth” value (SNB-75; Log10 Concentration −4.0 Molar) was −10%. The “Percent Growth” value (SNB-75; Log10 Concentration −5.0 Molar) was 41%, the “Percent Growth” value (SNB-75; Log10 Concentration −6.0 Molar) was 71% and the “Percent Growth” value (SNB-75; Log10 Concentration −7.0 Molar) was 92%. The “Percent Growth” value (SNB-75; Log10 Concentration −8.0 Molar) was 95%, the GI50 (NCI-H460) was 1.93E−8 Molar and the LC50 (NCI-H460) was >1.00E−4 Molar. For the same compound, the TGI (NCI-H460) was >1.00E−4 Molar, the “Percent Growth” value (NCI-H460; Log10 Concentration −4.0 Molar) was 3% and the “Percent Growth” value (NCI-H460; Log10 Concentration −5.0 Molar) was 3%. For the same compound, the “Percent Growth” value (NCI-H460; Log10 Concentration −6.0 Molar) was 15%, the “Percent Growth” value (NCI-H460; Log10 Concentration −7.0 Molar) was 23% and the “Percent Growth” value (NCI-H460; Log10 Concentration −8.0 Molar) was 61%. The GI50 (HS 576T) was 2.22E−6 Molar, the LC50 (HS 576T) was >1.00E−4 Molar and the TGI (HS 576T) was 2.94E−5 Molar. For the same compound, the “Percent Growth” value (HS 576T; Log10 Concentration −4.0 Molar) was −13%, the “Percent Growth” value (HS 576T; Log10 Concentration −5.0 Molar) was 11% and the “Percent Growth” value (HS 576T; Log10 Concentration −6.0 Molar) was 71%. For the same compound, the “Percent Growth” value (HS 576T; Log10 Concentration −7.0 Molar) was 97%, the “Percent Growth” value (HS 576T; Log10 Concentration −8.0 Molar) was 104% and the GI50 (IGROV1) was 2.87E−7 Molar. The LC50 (IGROV1) was >1.00E−4 Molar, the TGI (IGROV1) was >1.00E−4 Molar and the “Percent Growth” value (IGROV1; Log10 Concentration −4.0 Molar) was 11%. The “Percent Growth” value (IGROV1; Log10 Concentration −5.0 Molar) was 6%, the “Percent Growth” value (IGROV1; Log10 Concentration −6.0 Molar) was 24% and the “Percent Growth” value (IGROV1; Log10 Concentration −7.0 Molar) was 72%. For the same compound, the “Percent Growth” value (IGROV1; Log10 Concentration −8.0 Molar) was 93%, the GI50 (MOLT-4) was 6.61E−8 Molar and the LC50 (MOLT-4) was >1.00E−4 Molar. The TGI (MOLT-4) was >1.00E−4 Molar, the “Percent Growth” value (MOLT-4; Log10 Concentration −4.0 Molar) was 21% and the “Percent Growth” value (MOLT-4; Log10 Concentration −5.0 Molar) was 11%. The “Percent Growth” value (MOLT-4; Log10 Concentration −6.0 Molar) was 14%, the “Percent Growth” value (MOLT-4; Log10 Concentration −7.0 Molar) was 39% and the “Percent Growth” value (MOLT-4; Log10 Concentration −8.0 Molar) was 99%. For the same compound, the GI50 (NCI-H322M) was 1.35E−6 Molar, the LC50 (NCI-H322M) was >1.00E−4 Molar and the TGI (NCI-H322M) was >1.00E−4 Molar. The “Percent Growth” value (NCI-H322M; Log10 Concentration −4.0 Molar) was 39%, the “Percent Growth” value (NCI-H322M; Log10 Concentration −5.0 Molar) was 32% and the “Percent Growth” value (NCI-H322M; Log10 Concentration −6.0 Molar) was 53%. The “Percent Growth” value (NCI-H322M; Log10 Concentration −7.0 Molar) was 101%, the “Percent Growth” value (NCI-H322M; Log10 Concentration −8.0 Molar) was 103% and the GI50 (UO-31) was 7.90E−7 Molar. For the same compound, the LC50 (UO-31) was >1.00E−4 Molar, the TGI (UO-31) was >1.00E−4 Molar and the “Percent Growth” value (UO-31; Log10 Concentration −4.0 Molar) was 31%. For the same compound, the “Percent Growth” value (UO-31; Log10 Concentration −5.0 Molar) was 31%, the “Percent Growth” value (UO-31; Log10 Concentration −6.0 Molar) was 46% and the “Percent Growth” value (UO-31; Log10 Concentration −7.0 Molar) was 88%. For the same compound, the “Percent Growth” value (UO-31; Log10 Concentration −8.0 Molar) was 105%, the GI50 (OVCAR-3) was 2.48E−6 Molar and the LC50 (OVCAR-3) was >1.00E−4 Molar. For the same compound, the TGI (OVCAR-3) was >1.00E−4 Molar, the “Percent Growth” value (OVCAR-3; Log10 Concentration −4.0 Molar) was 14% and the “Percent Growth” value (OVCAR-3; Log10 Concentration −5.0 Molar) was 22%. For the same compound, the “Percent Growth” value (OVCAR-3; Log10 Concentration −6.0 Molar) was 66%, the “Percent Growth” value (OVCAR-3; Log10 Concentration −7.0 Molar) was 86% and the “Percent Growth” value (OVCAR-3; Log10 Concentration −8.0 Molar) was 91%. For the same compound, the GI50 (UACC-62) was 6.41E−7 Molar, the LC50 (UACC-62) was >1.00E−4 Molar and the TGI (UACC-62) was >1.00E−4 Molar. The “Percent Growth” value (UACC-62; Log10 Concentration −4.0 Molar) was 32%, the “Percent Growth” value (UACC-62; Log10 Concentration −5.0 Molar) was 27% and the “Percent Growth” value (UACC-62; Log10 Concentration −6.0 Molar) was 38%. For the same compound, the “Percent Growth” value (UACC-62; Log10 Concentration −7.0 Molar) was 99%, the “Percent Growth” value (UACC-62; Log10 Concentration −8.0 Molar) was 99% and the IC50 (A431 cytotoxicity assay) was 9.7 µM. For the same compound, the GI50 (DU-145) was 2.12E−7 Molar, the LC50 (DU-145) was >1.00E−4 Molar and the TGI (DU-145) was >1.00E−4 Molar. For the same compound, the “Percent Growth” value (DU-145; Log10 Concentration −4.0 Molar) was 7%, the “Percent Growth” value (DU-145; Log10 Concentration −5.0 Molar) was 18% and the “Percent Growth” value (DU-145; Log10 Concentration −6.0 Molar) was 37%. The “Percent Growth” value (DU-145; Log10 Concentration −7.0 Molar) was 56%, the “Percent Growth” value (DU-145; Log10 Concentration −8.0 Molar) was 95% and the IC50 (Flk-1 kinase) was > 200 µM. The GI50 (M14) was 4.31E−7 Molar, the LC50 (M14) was >1.00E−4 Molar and the TGI (M14) was >1.00E−4 Molar. The “Percent Growth” value (M14; Log10 Concentration −4.0 Molar) was 34%, the “Percent Growth” value (M14; Log10 Concentration −5.0 Molar) was 21% and the “Percent Growth” value (M14; Log10 Concentration −6.0 Molar) was 31%. The “Percent Growth” value (M14; Log10 Concentration −7.0 Molar) was 84%, the “Percent Growth” value (M14; Log10 Concentration −8.0 Molar) was 102% and the GI50 (SF-539) was 3.81E−7 Molar. For the same compound, the LC50 (SF-539) was >1.00E−4 Molar, the TGI (SF-539) was >1.00E−4 Molar and the “Percent Growth” value (SF-539; Log10 Concentration −4.0 Molar) was 2%. The “Percent Growth” value (SF-539; Log10 Concentration −5.0 Molar) was 20%, the “Percent Growth” value (SF-539; Log10 Concentration −6.0 Molar) was 31% and the “Percent Growth” value (SF-539; Log10 Concentration −7.0 Molar) was 77%. For the same compound, the “Percent Growth” value (SF-539; Log10 Concentration −8.0 Molar) was 101%, the GI50 (OVCAR-4) was 4.16E−6 Molar and the LC50 (OVCAR-4) was >1.00E−4 Molar. The TGI (OVCAR-4) was >1.00E−4 Molar, the “Percent Growth” value (OVCAR-4; Log10 Concentration −4.0 Molar) was 19% and the “Percent Growth” value (OVCAR-4; Log10 Concentration −5.0 Molar) was 30%. The “Percent Growth” value (OVCAR-4; Log10 Concentration −6.0 Molar) was 82%, the “Percent Growth” value (OVCAR-4; Log10 Concentration −7.0 Molar) was 84% and the “Percent Growth” value (OVCAR-4; Log10 Concentration −8.0 Molar) was 83%. The GI50 (SR) was 4.84E−8 Molar, the LC50 (SR) was >1.00E−4 Molar and the TGI (SR) was >1.00E−4 Molar. The “Percent Growth” value (SR; Log10 Concentration −4.0 Molar) was 2%, the “Percent Growth” value (SR; Log10 Concentration −5.0 Molar) was 12% and the “Percent Growth” value (SR; Log10 Concentration −6.0 Molar) was 22%. The “Percent Growth” value (SR; Log10 Concentration −7.0 Molar) was 41%, the “Percent Growth” value (SR; Log10 Concentration −8.0 Molar) was 70% and the GI50 (SK-MEL-5) was 5.13E−7 Molar. For the same compound, the LC50 (SK-MEL-5) was >1.00E−4 Molar, the TGI (SK-MEL-5) was 1.59E−5 Molar and the “Percent Growth” value (SK-MEL-5; Log10 Concentration −4.0 Molar) was −45%. The “Percent Growth” value (SK-MEL-5; Log10 Concentration −5.0 Molar) was 11%, the “Percent Growth” value (SK-MEL-5; Log10 Concentration −6.0 Molar) was 35% and the “Percent Growth” value (SK-MEL-5; Log10 Concentration −7.0 Molar) was 87%. The “Percent Growth” value (SK-MEL-5; Log10 Concentration −8.0 Molar) was 95%, the LC50 (OVCAR-5) was >1.00E−4 Molar and the TGI (OVCAR-5) was >1.00E−4 Molar. For the same compound, the “Percent Growth” value (OVCAR-5; Log10 Concentration −4.0 Molar) was 58%, the “Percent Growth” value (OVCAR-5; Log10 Concentration −5.0 Molar) was 47% and the “Percent Growth” value (OVCAR-5; Log10 Concentration −6.0 Molar) was 56%. For the same compound, the “Percent Growth” value (OVCAR-5; Log10 Concentration −7.0 Molar) was 77% and the “Percent Growth” value (OVCAR-5; Log10 Concentration −8.0 Molar) was 96%.

— patent US9422297B2, “Tricyclic compounds having cytostatic and/or cytotoxic activity and methods of use thereof” (Duquesne University of the Holy Ghost, priority 2007, dated 2016)
